Values after ≈ are worked out from the molar mass of the structure shown. Active and inactive are the calls of the source. The calls are words filed in the database; no cut-off is given here.
Legend:
MDA-MB-453 = assay: Antiproliferative activity against human MDA-MB-453 cells assessed as cell growth inhibition incubated for 72 hrs by MTS assay; type: functional, cell-based; conditions: MDA-MB-453, 72 h
[1] = target: T1, CYP1A2 (description prints CYP1AA) (Homo sapiens, UniProt P05177); assay: Inhibition of […] in human liver microsomes using phenacetin as substrate at 10 uM; type: ADME; conditions: probe phenacetin
T1 sequence (P05177 whole entry): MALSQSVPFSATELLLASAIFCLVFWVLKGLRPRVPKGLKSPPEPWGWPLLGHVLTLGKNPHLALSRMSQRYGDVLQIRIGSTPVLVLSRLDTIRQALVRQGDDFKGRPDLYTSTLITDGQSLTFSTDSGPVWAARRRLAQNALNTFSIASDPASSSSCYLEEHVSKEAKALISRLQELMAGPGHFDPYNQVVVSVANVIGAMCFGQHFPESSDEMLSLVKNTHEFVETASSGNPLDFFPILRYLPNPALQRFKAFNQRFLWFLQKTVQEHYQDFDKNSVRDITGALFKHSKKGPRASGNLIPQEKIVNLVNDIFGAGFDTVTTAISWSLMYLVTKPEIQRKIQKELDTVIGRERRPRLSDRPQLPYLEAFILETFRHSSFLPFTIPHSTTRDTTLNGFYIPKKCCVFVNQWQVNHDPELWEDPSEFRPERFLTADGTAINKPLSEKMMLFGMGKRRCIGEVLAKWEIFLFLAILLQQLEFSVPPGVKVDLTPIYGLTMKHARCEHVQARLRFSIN

[2] = Metabolic stability in mouse liver microsomes assessed as half life in presence of NADPH regenerating system by UPLC-MS analysis; type: ADME, Microsome; conditions: microsomes
[3] = Aqueous solubility of compound in pH 7.4 PBS buffer; type: physicochemical
CYP2C8 = target: T2, CYP2C8 (Homo sapiens, UniProt P10632); assay: Inhibition of CYP2C8 in human liver microsomes using amodiaquine as substrate at 10 uM; type: ADME; conditions: probe amodiaquine
T2 sequence (P10632 whole entry): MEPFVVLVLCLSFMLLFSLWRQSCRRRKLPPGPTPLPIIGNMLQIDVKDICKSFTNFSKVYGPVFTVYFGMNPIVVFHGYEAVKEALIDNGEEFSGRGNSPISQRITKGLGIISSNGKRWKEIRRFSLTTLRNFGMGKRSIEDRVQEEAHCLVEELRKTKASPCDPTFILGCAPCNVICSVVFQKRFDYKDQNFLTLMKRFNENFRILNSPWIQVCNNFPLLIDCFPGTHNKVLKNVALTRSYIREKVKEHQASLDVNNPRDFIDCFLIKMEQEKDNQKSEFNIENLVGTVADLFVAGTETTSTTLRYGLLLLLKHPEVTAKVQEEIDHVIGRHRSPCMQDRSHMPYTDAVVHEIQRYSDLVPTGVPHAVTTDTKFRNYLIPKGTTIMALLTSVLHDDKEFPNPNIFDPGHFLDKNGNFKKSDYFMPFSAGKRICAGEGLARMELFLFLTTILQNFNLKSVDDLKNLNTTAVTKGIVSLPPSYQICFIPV

[4] = Cytotoxicity against paclitaxel resistant human MDA-MB-231/TxR cells measured after 72 hrs […]; type: functional, cell-based
Salmonella typhimurium [5] = assay: Mutagenicity in Salmonella typhimurium TA98 by Ames test; type: toxicity, organism-based; conditions: salmonella enterica subsp. enterica serovar typhimurium
M14 = assay: Cytotoxicity against paclitaxel resistant human M14 cells measured after 72 hrs […]; type: functional, cell-based; conditions: M14, 72 h
[6] = Antimetastatic activity against human A375/TxR cells xenografted in SCID mouse assessed as metastatic in liver at 10 mg/kg, ip; type: functional
[7] = Systemic toxicity in human A375/TxR cells xenografted in SCID mouse tumor model assessed as pathological change in spleen at 10 to 20 mg/kg, ip by H and E staining based analysis; type: organism-based; conditions: in vivo, dose 10-20 mg/kg
A375/TxR [8] = assay: Induction of cell cycle arrest in human A375/TxR cells assessed as accumulation at G2/M phase measured for 24 hrs by PI staining based flow cytometry analysis; type: functional
hERG (KCNH2) = hERG (KCNH2) (Homo sapiens, UniProt Q12809); assay: Inhibition of human ERG at 10 uM
A-375 = assay: Antiproliferative activity against human A-375 cells assessed as cell growth inhibition incubated for 72 hrs by MTS assay; type: functional, cell-based; conditions: A-375, 72 h
[9] = Induction of apoptosis in human A375/TxR cells assessed as apoptotic cells at 2.5 nM measured for 24 hrs by annexin VFITC /PI staining based analysis (reference value: […]); type: functional
A375/TxR [10] = assay: Induction of cell cycle arrest in human A375/TxR cells assessed as decrease in accumulation at G1 phase measured for 24 hrs by PI staining based flow cytometry analysis; type: functional
A375/TxR [11] = assay: Antimetastatic activity against human A375/TxR cells xenografted in SCID mouse assessed as metastatic in liver at 20 mg/kg, ip; type: functional, organism-based
[12] = Systemic toxicity in human A375/TxR cells xenografted in SCID mouse tumor model assessed as pathological change in liver at 10 to 20 mg/kg, ip by H and E staining based analysis; type: organism-based; conditions: in vivo, dose 10-20 mg/kg
Salmonella typhimurium [13] = assay: Mutagenicity in Salmonella typhimurium […] by Ames test; type: toxicity, organism-based; conditions: salmonella enterica subsp. enterica serovar typhimurium
A375/TxR [14] = assay: Induction of cell cycle arrest in human A375/TxR cells assessed as decrease in accumulation at S phase measured for 24 hrs by PI staining based flow cytometry analysis; type: functional
[15] = Clearance in NSG mouse at 10 mg/kg, ip; type: ADME, organism-based; conditions: in vivo

Chain of hERG (KCNH2) (Q12809 whole entry): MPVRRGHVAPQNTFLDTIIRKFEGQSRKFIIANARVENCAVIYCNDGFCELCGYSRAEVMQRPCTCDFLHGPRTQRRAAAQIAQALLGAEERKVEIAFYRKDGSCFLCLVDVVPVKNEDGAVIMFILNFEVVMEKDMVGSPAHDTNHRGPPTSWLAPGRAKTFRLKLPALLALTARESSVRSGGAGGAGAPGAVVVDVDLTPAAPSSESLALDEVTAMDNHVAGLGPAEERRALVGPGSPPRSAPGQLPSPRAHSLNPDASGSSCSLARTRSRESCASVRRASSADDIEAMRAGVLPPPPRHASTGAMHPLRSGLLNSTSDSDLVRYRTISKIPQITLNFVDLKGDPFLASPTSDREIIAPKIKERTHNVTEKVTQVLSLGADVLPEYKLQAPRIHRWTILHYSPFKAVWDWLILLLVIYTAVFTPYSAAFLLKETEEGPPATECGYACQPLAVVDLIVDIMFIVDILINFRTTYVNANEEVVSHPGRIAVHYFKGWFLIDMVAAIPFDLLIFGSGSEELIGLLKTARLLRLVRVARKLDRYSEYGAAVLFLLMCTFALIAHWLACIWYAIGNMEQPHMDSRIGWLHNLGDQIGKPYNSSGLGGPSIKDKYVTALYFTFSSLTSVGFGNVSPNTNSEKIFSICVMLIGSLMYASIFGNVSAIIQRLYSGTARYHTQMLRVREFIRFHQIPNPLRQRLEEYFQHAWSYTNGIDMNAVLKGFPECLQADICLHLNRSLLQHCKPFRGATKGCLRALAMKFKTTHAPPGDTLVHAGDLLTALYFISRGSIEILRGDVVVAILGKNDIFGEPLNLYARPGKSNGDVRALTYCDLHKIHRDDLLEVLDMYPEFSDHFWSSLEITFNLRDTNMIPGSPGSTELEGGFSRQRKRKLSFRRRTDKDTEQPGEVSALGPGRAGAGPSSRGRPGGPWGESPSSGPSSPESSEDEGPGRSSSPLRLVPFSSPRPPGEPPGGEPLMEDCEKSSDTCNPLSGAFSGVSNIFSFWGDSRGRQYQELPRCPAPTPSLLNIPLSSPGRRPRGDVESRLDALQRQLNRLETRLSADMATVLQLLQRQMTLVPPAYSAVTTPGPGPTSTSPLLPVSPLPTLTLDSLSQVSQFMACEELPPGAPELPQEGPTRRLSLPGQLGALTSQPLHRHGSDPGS

- IC50 (MDA-MB-453): 1.4 nM
- inhibition at 10 µM [1]: 50.9%
- t1/2 [2]: > 4 h
- solubility [3]: 0.1 µM (≈ 0.0397 µg/mL)
- inhibition at 10 µM (CYP2C8): 92.5%
- IC50 (A-375): 1.8 nM
- CL/F [15]: 34.1 mL/min/kg
SMILES: COc1cc(C(=O)c2nc(-c3ccc(C)c(O)c3)ccc2F)cc(OC)c1OC
- IC50 [4]: 2.1 nM
- Activity (Salmonella typhimurium [5]): Non-Toxic
- IC50 (M14): 4.9 nM
- Activity [6]: 33%
- Activity [7]: Non-Toxic
- Activity (A375/TxR [8]): Dose-Dependent Effect
- inhibition at 10 µM (hERG (KCNH2)): 5.14%
- Activity [9]: 14.5%
- Activity (A375/TxR [10]): Dose-Dependent Effect
- Activity (A375/TxR [11]): inactive
- Activity [12]: Non-Toxic
- Activity (Salmonella typhimurium [13]): Non-Toxic
- Activity (A375/TxR [14]): Dose-Dependent Effect

Source: ChEMBL document CHEMBL5029155, “Design, Synthesis, and Biological Evaluation of Stable Colchicine-Binding Site Tubulin Inhibitors 6-Aryl-2-benzoyl-pyridines as Potential Anticancer Agents” (J Med Chem, 2021)
